Measured values from patent US12247004B2, “2-amino-N-(amino-oxo-aryl-lambda6-sulfanylidene)acetamide compounds and their therapeutic use” (Oxford Drug Design Limited, priority 2019, dated 2025).
Converted amounts (≈) assume the structure as drawn. Where two headings read alike, the source gives them in different places.

Assays:
[1] = target: Isoleucyl-tRNA synthetase (IleRS) (Escherichia coli (strain K12), UniProt P00956); assay: Isoleucyl-tRNA synthetase enzyme inhibition (AMP-Glo; single point % inhibition at 100 μM and IC50); assay type: biochemical; settings: E. coli IleRS; read-out: Enzyme Inhibition - IC50, E. coli IleRS
Isoleucyl-tRNA synthetase (IleRS), sequence (P00956 whole entry, looked up): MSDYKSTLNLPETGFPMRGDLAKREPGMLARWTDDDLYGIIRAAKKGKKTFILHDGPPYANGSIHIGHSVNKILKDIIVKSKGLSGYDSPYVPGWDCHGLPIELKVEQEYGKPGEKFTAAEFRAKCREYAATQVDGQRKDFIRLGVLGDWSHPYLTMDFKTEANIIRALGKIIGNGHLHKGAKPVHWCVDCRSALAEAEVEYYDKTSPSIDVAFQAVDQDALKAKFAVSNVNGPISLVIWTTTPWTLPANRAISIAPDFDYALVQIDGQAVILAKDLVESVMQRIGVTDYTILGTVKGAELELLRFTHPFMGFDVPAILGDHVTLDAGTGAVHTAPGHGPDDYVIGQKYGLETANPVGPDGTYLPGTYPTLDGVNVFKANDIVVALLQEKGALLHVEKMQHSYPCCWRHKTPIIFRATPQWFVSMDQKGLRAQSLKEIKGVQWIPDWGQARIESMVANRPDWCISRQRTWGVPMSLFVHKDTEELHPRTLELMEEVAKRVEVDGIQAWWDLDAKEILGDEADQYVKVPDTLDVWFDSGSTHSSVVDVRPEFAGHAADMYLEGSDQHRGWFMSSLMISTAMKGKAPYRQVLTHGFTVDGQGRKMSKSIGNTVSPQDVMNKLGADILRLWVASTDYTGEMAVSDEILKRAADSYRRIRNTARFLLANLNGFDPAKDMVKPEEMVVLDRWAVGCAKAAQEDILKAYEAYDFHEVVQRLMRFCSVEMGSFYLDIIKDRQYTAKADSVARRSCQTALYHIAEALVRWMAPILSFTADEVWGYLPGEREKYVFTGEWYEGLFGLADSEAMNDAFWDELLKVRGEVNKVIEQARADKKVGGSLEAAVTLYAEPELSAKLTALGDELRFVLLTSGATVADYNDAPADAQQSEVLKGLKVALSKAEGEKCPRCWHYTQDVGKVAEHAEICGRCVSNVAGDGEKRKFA
Excerpt: Study 1—Enzyme Inhibition
The aminoacylation reaction catalyzed by aminoacyl-tRNA synthetases (aaRS) takes place in two steps. In the first step, aaRS activates its cognate amino acid with ATP; and in the second step the activated amino acid is loaded to its corresponding tRNA. This reaction can be summarized as follows: aaRS+aa+ATP=aaRS-aa-AMP+PPi aaRS-aa-AMP+tRNA=aa-tRNA+AMP+aaRS […]
wherein: aaRS, aminoacyl-tRNA synthetase; aa, amino acid; aaRS-aa-AMP, enzyme-bound to aminoacyl-adenylate; AMP, adenosine monophosphate; aa-tRNA, aminoacyl-tRNA, PPi, inorganic pyrophosphate.
Isoleucyl-tRNA Synthetase a. Single Point Percentage Inhibition
The activity of the pathogenic aaRSs was monitored by measuring AMP production using the commercial kit AMP-Glo (Promega, Madison, USA).
Ligand stock solutions were prepared in 100% DMSO at 10 mM concentration. An assay buffer consisting of 100 mM Tris HCl pH 7.6, 40 mM MgCl, 20 mM KCl and 150 mM NaCl was prepared in dH2O. An enzyme solution containing 51.77 μM IleRS was prepared in assay buffer to provide 30 nM final assay concentration and 75 nM reservoir concentration for a 1:2.5 dilution in the assay. A substrate solution was also prepared in assay buffer with 50 mM L-isoleucine, 10 mM ATP and 100 mg/mL tRNA. A final assay concentration of 500 μM L-isoleucine, 5 μM ATP and 1 mg/mL tRNA and reservoir concentration of 833.33 μM L-isoleucine, 8.33 μM ATP and 1.67 mg/mL tRNA was used for a 1:1.66 dilution in assay.
Enzyme percentage inhibition values were recorded in triplicate at a single point concentration of 100 μM.
Using the same enzymatic assay in a 384-well plate format, ten point concentration response curves were generated for each compound using a top concentration of 100 μM. The known inhibitor, IleAMS was used as a positive control for the IleRS assay. 100% DMSO was used as a negative control. The IC50 was calculated based on non-linear regression analysis.

[2] = tested on: bacteria (ATCC reference strains); assay: Antibacterial activity, MIC by broth micro-dilution (CLSI)
[3] = Human cell viability / cytotoxicity (CellTiter-Glo, 24 hours); assay type: cell-based; settings: human, HepG2 cells (ATCC HB-8065); HepG2 ATCC HB-8065, 24 hours; read-out: Cytotoxicity in HepG2 ATCC HB-8065 Cell Line, IC50
Description: Study 3—Human Cell Viability
Compounds were assessed for potential non-specific cytotoxic effects against a human hepatic cell line (HepG2 ATCC HB-8065). 96-well plates were seeded with HepG2 cells in concentration of 15,000 cells per well in 100 μL of MEM growth media completed with 1% NEAA and 1% sodium pyruvate. Border wells were filled with 100 μL of sterile PBS. Two days upon cells incubation, the compounds were added. Compound dilutions were prepared in 96-well V-bottom plate in pure DMSO. Growth media from 5 plates were aspirated and replaced with 98.7 μL of fresh growth media. 1.28 μL of compounds prepared in V-bottom plates were transferred with multichannel pipette into test plates (78.1× dilution). Final DMSO concentration was 1.28% per well. In control wells, 1.28 μL of DMSO was added in 98.7 μL of media. Compounds were tested in duplicates. Cells were incubated with compounds for 24 hours when cell viability was assessed by measuring ATP levels. ATP levels were measured by adding 50 μL of CellTiter-Glo reagent to each well and after 5 minutes of incubation luminescence was measured with SpectraMax i3. The potential effect of tested compounds on cell viability was determined by comparing the signal obtained in presence of different concentrations of the compounds with those obtained in the presence of DMSO only. The potential effects were then calculated and presented as IC50 values (μg/mL).

[4] = target: Leucyl-tRNA synthetase (LeuRS) (Escherichia coli (strain K12), UniProt P07813); assay: Leucyl-tRNA synthetase enzyme inhibition (AMP-Glo; single point % inhibition at 100 μM and IC50); assay type: biochemical
Leucyl-tRNA synthetase (LeuRS), sequence (P07813 whole entry, looked up): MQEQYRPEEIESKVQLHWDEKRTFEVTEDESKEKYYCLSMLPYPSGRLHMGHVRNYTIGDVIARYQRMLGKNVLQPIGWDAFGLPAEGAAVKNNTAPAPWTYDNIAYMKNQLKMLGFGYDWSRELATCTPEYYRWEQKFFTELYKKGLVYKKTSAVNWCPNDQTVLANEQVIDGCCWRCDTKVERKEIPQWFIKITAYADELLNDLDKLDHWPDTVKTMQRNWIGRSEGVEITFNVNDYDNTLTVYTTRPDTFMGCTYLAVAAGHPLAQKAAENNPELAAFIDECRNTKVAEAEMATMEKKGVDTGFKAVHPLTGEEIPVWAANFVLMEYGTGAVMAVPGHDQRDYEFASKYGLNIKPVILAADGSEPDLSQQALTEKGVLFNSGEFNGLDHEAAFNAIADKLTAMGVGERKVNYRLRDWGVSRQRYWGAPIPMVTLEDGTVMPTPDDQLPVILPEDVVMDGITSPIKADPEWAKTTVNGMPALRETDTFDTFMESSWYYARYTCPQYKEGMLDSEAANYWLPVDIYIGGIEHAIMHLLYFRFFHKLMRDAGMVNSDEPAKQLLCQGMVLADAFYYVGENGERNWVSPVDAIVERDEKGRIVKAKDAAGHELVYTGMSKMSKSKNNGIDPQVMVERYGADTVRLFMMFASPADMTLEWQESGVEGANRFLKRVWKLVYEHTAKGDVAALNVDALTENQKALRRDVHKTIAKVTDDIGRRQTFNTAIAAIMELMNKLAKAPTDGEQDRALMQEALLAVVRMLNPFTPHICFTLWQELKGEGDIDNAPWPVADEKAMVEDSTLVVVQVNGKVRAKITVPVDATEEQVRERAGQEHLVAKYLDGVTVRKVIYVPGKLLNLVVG

[5] = Acinetobacter baumannii, read-out: Antibacterial Activity (MIC), E = A. baumannii B1931
[6] = Enterobacter cloacae, read-out: Antibacterial Activity (MIC), B = Enterobacter cloacae B1966
[7] = Escherichia coli, ATCC25922, read-out: Antibacterial Activity (MIC), A = E. coli ATCC 25922
[8] = Escherichia coli, BAA2469, read-out: Antibacterial Activity (MIC), G = E. coli BAA-2469
[9] = Haemophilus influenzae, ATCC49247, read-out: Antibacterial Activity (MIC), F = H. influenzae ATCC 49247
[10] = Klebsiella pneumoniae, ATCC700603, read-out: Antibacterial Activity (MIC), C = K. pneumoniae ATCC 700603
[11] = Pseudomonas aeruginosa, ATCC27853, read-out: Antibacterial Activity (MIC), D = P. aeruginosa ATCC 27853

CC[C@H](C)[C@H](N)C(=O)N=[S@](N)(=O)c1cccs1 (single isomer, unassigned) [ANASIA-028-1]
IC50 [1]: 46500 nM

CC(C)C[C@H](N)C(=O)N=[S@](N)(=O)c1sccc1Cl.Cl [ANASIA-012-1]
MIC [2, 5]: 64 µg/mL
MIC [2, 6]: 32 µg/mL
MIC [2, 7]: 4 µg/mL
MIC [2, 8]: 16 µg/mL
MIC [2, 9]: 8 µg/mL
MIC [2, 10]: 64 µg/mL
MIC [2, 11]: > 64 µg/mL
IC50 at 24 h [3]: > 64 µg/mL
IC50 [4]: 87.4 nM

CC(C)C[C@H](N)C(=O)N=S(N)(=O)c1sccc1Cl (some centres unmarked) [ANASIA-012]
MIC [2, 5]: > 64 µg/mL
MIC [2, 6]: 64 µg/mL (≈ 207 µM)
MIC [2, 7]: 8 µg/mL (≈ 25.8 µM)
MIC [2, 8]: 32 µg/mL (≈ 103 µM)
MIC [2, 9]: 16 µg/mL (≈ 51.6 µM)
MIC [2, 10]: > 64 µg/mL
MIC [2, 11]: > 64 µg/mL
IC50 at 24 h [3]: > 64 µg/mL
IC50 ([4]; E. coli LeuRS, read-out: Enzyme Inhibition - IC50, E. coli LeuRS): 155 nM

Cc1ccc([S@@](N)(=O)=NC(=O)[C@@H](N)CC(C)C)s1.Cl [ANASIA-014-1]
MIC [2, 5]: 64 µg/mL
MIC [2, 6]: 16 µg/mL
MIC [2, 7]: 4 µg/mL
MIC [2, 9]: 4 µg/mL
MIC [2, 10]: 64 µg/mL
MIC [2, 11]: > 64 µg/mL
IC50 at 24 h [3]: > 64 µg/mL
IC50 [4]: 81.1 nM

Cc1ccsc1[S@@](N)(=O)=NC(=O)[C@@H](N)CC(C)C.Cl [ANASIA-015-1]
MIC [2, 5]: 64 µg/mL
MIC [2, 6]: 16 µg/mL
MIC [2, 7]: 2 µg/mL
MIC [2, 8]: 5.66 µg/mL
MIC [2, 9]: 8 µg/mL
MIC [2, 10]: 16 µg/mL
MIC [2, 11]: 64 µg/mL
IC50 at 24 h [3]: > 64 µg/mL
IC50 [4]: 56.5 nM

CC(C)C[C@H](N)C(=O)N=S(N)(=O)c1ccc(C(F)F)s1 (some centres unmarked) [ANASIA-017]
MIC [2, 5]: > 64 µg/mL
MIC [2, 6]: > 64 µg/mL
MIC [2, 7]: 16 µg/mL (≈ 49.2 µM)
MIC [2, 9]: 8 µg/mL (≈ 24.6 µM)
MIC [2, 10]: > 64 µg/mL
MIC [2, 11]: > 64 µg/mL
IC50 at 24 h [3]: > 64 µg/mL
IC50 [4]: 145 nM

CC(C)C[C@H](N)C(=O)N=[S@](N)(=O)c1cc(F)ccc1F.Cl [ANASIA-024-1]
MIC [2, 5]: > 64 µg/mL
MIC [2, 6]: > 64 µg/mL
MIC [2, 7]: 16 µg/mL
MIC [2, 9]: 16 µg/mL
MIC [2, 10]: > 64 µg/mL
MIC [2, 11]: > 64 µg/mL
IC50 at 24 h [3]: > 64 µg/mL
IC50 [4]: 141 nM

CC[C@H](C)[C@H](N)C(=O)N=[S@](N)(=O)c1ccc(Cl)s1 [ANASIA-029-1]
IC50 [1]: 67400 nM

CC[C@H](C)[C@H](N)C(=O)N=[S@](N)(=O)c1cccc(-c2ccccc2)c1 [ANASIA-032-1]
IC50 [1]: 50800 nM

CC[C@H](C)[C@H](N)C(=O)N=[S@](N)(=O)c1cccc(Cl)c1 [ANASIA-033-1]
IC50 [1]: 67600 nM

CC[C@H](C)[C@H](N)C(=O)N=[S@@](N)(=O)c1ccc(Cl)c(Cl)c1 [ANASIA-036-2]
IC50 [1]: 30600 nM

CC(C)C[C@H](N)C(=O)N=[S@](N)(=O)c1cccc(C#N)c1.Cl [ANASIA-041-1]
MIC [2, 5]: > 64 µg/mL
MIC [2, 6]: > 64 µg/mL
MIC [2, 7]: 5.66 µg/mL
MIC [2, 8]: 64 µg/mL
MIC [2, 9]: 2.83 µg/mL
MIC [2, 10]: > 64 µg/mL
MIC [2, 11]: > 64 µg/mL
IC50 at 24 h [3]: > 64 µg/mL
IC50 [4]: 17.7 nM

CC(C)C[C@H](N)C(=O)N=[S@](N)(=O)c1cccc(C(C)C)c1.Cl [ANASIA-043-1]
MIC [2, 5]: > 64 µg/mL
MIC [2, 6]: > 64 µg/mL
MIC [2, 7]: > 64 µg/mL
MIC [2, 9]: 45.3 µg/mL
MIC [2, 10]: > 64 µg/mL
MIC [2, 11]: > 64 µg/mL
IC50 at 24 h [3]: > 64 µg/mL
IC50 [4]: 112 nM

CC(C)C[C@H](N)C(=O)N=[S@](N)(=O)c1cccc(Br)c1.Cl [ANASIA-044-1]
MIC [2, 5]: 64 µg/mL
MIC [2, 6]: 16 µg/mL
MIC [2, 7]: 2 µg/mL
MIC [2, 9]: 2 µg/mL
MIC [2, 10]: 64 µg/mL
MIC [2, 11]: > 64 µg/mL
IC50 at 24 h [3]: > 64 µg/mL
IC50 [4]: 71 nM

CC(C)C[C@H](N)C(=O)N=[S@](N)(=O)c1cccc(Cl)c1Cl.Cl [ANASIA-046-1]
MIC [2, 5]: > 64 µg/mL
MIC [2, 6]: > 64 µg/mL
MIC [2, 7]: > 64 µg/mL
MIC [2, 9]: 64 µg/mL
MIC [2, 10]: > 64 µg/mL
MIC [2, 11]: > 64 µg/mL
IC50 at 24 h [3]: > 64 µg/mL
IC50 [4]: 960 nM
